# In patent publication US11532406B2, “High specific activity preparation of F-18 tetrafluoroborate” (Mayo Foundation for Medical Education and Research, priority 2016, dated 2022):
# “Also recorded” adds a separate entry of the source.
# Legend:
# [1] = PET/CT imaging of ^18F-TFB in healthy participants (pharmacokinetics, biodistribution); type: in vivo, human
# Text: Approval of the study was obtained from the Mayo Clinic Institutional Review Board and all participants provided informed consent. Four male (36±14 y) and four female (35±8 y) healthy volunteers were enrolled in the study. Participants were excluded that had previous diagnosis of cancer or clinically significant cardiovascular, renal, pulmonary, metabolic, and endocrine (thyroid) diseases. Participants were not required to fast prior to the imaging study but instructed to remain well-hydrated.
# The imaging protocol is illustrated in FIG. 13. After voiding of the bladder, participants were positioned in a GE 690XT PET/CT scanner (GE HealthCare, Waukesha, Wis.) in a supine position with the heart in the center of the axial field of view. Intravenous catheters were placed in both arms for radiotracer injection and blood sampling. Computed tomography scans of the thorax were initially acquired in the preparation for a dynamic PET data acquisition over the heart for the first 45 min following commencement of radiotracer administration. ^18F-TFB (333-407 MBq) was administered over 1 minute into one of the catheters. The frame sequence for initial dynamic PET acquisition was 15×4, 8×15, 4×30, and 8×300 seconds. Following the dynamic heart scan, the participants were allowed a break from the scanner, during which time voided their bladders. Two additional PET/CT scans, from the vertex of the skull to mid-thigh, were performed at 2 hours and 3.5 hours respectively. The last PET/CT scan was completed ˜4 h post-injection.
# All PET scans images were reconstructed using 3D OSEM and time-of-flight reconstruction. Volumes of interest (VOI's) of organs were drawn using PMOD software (Ver. 3.5). Standardized Uptake Values (SUVs) normalized to body weight were then calculated for each VOI. Time-activity curves (TACs) were evaluated from the initial dynamic scan over the heart for left-ventricular blood pool, lung and liver regions.
# [2] = Safety measurements for ^18F-TFB administration (vital signs, clinical laboratory tests); type: in vivo, human
# Procedure: Vital signs (heart rate, systolic and diastolic blood pressures, respiratory rate, and temperature) were measured prior to ^18F-TFB administration and at 45 and 240 min post-injection. Venous blood samples were taken prior to ^18F-TFB administration and at ˜240 min post-injection for a panel of clinical laboratory tests to evaluate the safety of the radiotracer administration.
# [3] = test system: hNIS-expressing C6 glioma xenograft; test: Dynamic PET imaging in hNIS-expressing C6 glioma xenografted athymic mice; type: in vivo
# Procedure: Studies with mice were performed under approval of the Mayo Clinic Institutional Animal Care and Use Committee. Dynamic PET imaging was performed in hNIS-expressing C6 glioma xenografted athymic mice following retro-orbital injection ˜1.1 MBq Na ^18F-TFB at different specific activities (10-0.001 mg TFB/Kg mouse) to assess hNIS activity with ^18F-TFB. In this xenograft model, one flank has hNIS-negative C6 glioma tumor xenograft and the other flank had hNIS-expressing C6 glioma xenograft.
# PET scans were acquired for 60 min followed by an X-ray scan using the GENISYS4 PET imaging system (Sofie Biosciences, CA). The images from 40 hNIS-expressing C6 glioma xenografted mice were analyzed for Standardized Uptake Value (SUV) in tumor, stomach, and thyroid using AMIDE image processing software (20). The SUV in tumor was normalized with SUV in stomach to account for difference in ^18F-TFB bioavailability in different animals due to competing uptake in normal organs like thyroid, salivary glands and stomach.
# [4] = Estimated plasma / in vivo concentration of TFB after ~400 MBq ^18F-TFB; design: species or system human; details: specific activity of 8 GBq/μmol, ~400 MBq administered dose
# [5] = Measurements in venous blood and urine samples, HPLC metabolite analysis; type: in vivo, human; details: all urine samples, approximately 50, 160, 250 min
# [6] = representative participant, post-administration
# [7] = C6-glioma xenograft mouse model, PET
smiles,measurement,setting,value
"F[B-](F)(F)[18F] [^18F-TFB, ^18F-tetrafluoroborate]","PET/CT-derived distribution (SUV), Bone","[1]; females, 2 h post-injection",0.74 ± 0.20 SUV
same,"PET/CT-derived distribution (SUV), Brain","[1]; females, 2 h post-injection",0.42 ± 0.15 SUV
same,"PET/CT-derived distribution (SUV), Breast","[1]; females, 2 h post-injection",2.8 ± 0.4 SUV
same,"PET/CT-derived distribution (SUV), Gallbladder","[1]; females, 2 h post-injection",3.7 ± 1.0 SUV
same,"PET/CT-derived distribution (SUV), Intestines","[1]; females, 2 h post-injection",5.0 ± 2.7 SUV
same,"PET/CT-derived distribution (SUV), Kidney","[1]; females, 2 h post-injection",5.6 ± 0.7 SUV
same,"PET/CT-derived distribution (SUV), Liver","[1]; females, 2 h post-injection",2.7 ± 0.5 SUV
same,"PET/CT-derived distribution (SUV), Lung","[1]; females, 2 h post-injection",1.2 ± 0.4 SUV
same,"PET/CT-derived distribution (SUV), Muscle","[1]; females, 2 h post-injection",0.65 ± 0.35 SUV
same,"PET/CT-derived distribution (SUV), Myocardium","[1]; females, 2 h post-injection",2.8 ± 0.5 SUV
same,"PET/CT-derived distribution (SUV), Pancreas","[1]; females, 2 h post-injection",3.1 ± 1.7 SUV
same,"PET/CT-derived distribution (SUV), Parotid","[1]; females, 2 h post-injection",20 ± 11 SUV
same,"PET/CT-derived distribution (SUV), Spleen","[1]; females, 2 h post-injection",4.3 ± 1.0 SUV
same,"PET/CT-derived distribution (SUV), Stomach","[1]; females, 2 h post-injection",72 ± 10 SUV
same,"PET/CT-derived distribution (SUV), Thyroid","[1]; females, 2 h post-injection",50 ± 11 SUV
same,"PET/CT-derived distribution (SUV), Bone","[1]; females, 3.5 h post-injection",1.3±0.9 SUV
same,"PET/CT-derived distribution (SUV), Brain","[1]; females, 3.5 h post-injection",0.61 ± 0.34 SUV
same,"PET/CT-derived distribution (SUV), Breast","[1]; females, 3.5 h post-injection",3.9 ± 1.4 SUV
same,"PET/CT-derived distribution (SUV), Gallbladder","[1]; females, 3.5 h post-injection",5.0 ± 1.6 SUV
same,"PET/CT-derived distribution (SUV), Intestines","[1]; females, 3.5 h post-injection",6.0 ± 3.1 SUV
same,"PET/CT-derived distribution (SUV), Kidney","[1]; females, 3.5 h post-injection",6.3 ± 2.4 SUV
same,"PET/CT-derived distribution (SUV), Liver","[1]; females, 3.5 h post-injection",3.5 ± 1.6 SUV
same,"PET/CT-derived distribution (SUV), Lung","[1]; females, 3.5 h post-injection",1.5 ± 0.8 SUV
same,"PET/CT-derived distribution (SUV), Muscle","[1]; females, 3.5 h post-injection",0.78 ± 0.54 SUV
same,"PET/CT-derived distribution (SUV), Myocardium","[1]; females, 3.5 h post-injection",3.8 ± 1.8 SUV
same,"PET/CT-derived distribution (SUV), Pancreas","[1]; females, 3.5 h post-injection",3.0 ± 1.2 SUV
same,"PET/CT-derived distribution (SUV), Parotid","[1]; females, 3.5 h post-injection",25 ± 15 SUV
same,"PET/CT-derived distribution (SUV), Spleen","[1]; females, 3.5 h post-injection",5.5 ± 2.8 SUV
same,"PET/CT-derived distribution (SUV), Stomach","[1]; females, 3.5 h post-injection",51 ± 18 SUV
same,"PET/CT-derived distribution (SUV), Thyroid","[1]; females, 3.5 h post-injection",58 ± 12 SUV
same,blood clearance of radioactivity (left-ventricular blood pool time-activity curve),[1]; healthy participants,multiphasic; also recorded: multi-phasic
same,urinary clearance,[1]; healthy participants,prominent
same,"PET/CT-derived distribution (SUV), Bone","[1]; males, 2 h post-injection",0.80 ± 0.33 SUV
same,"PET/CT-derived distribution (SUV), Brain","[1]; males, 2 h post-injection",0.39 ± 0.14 SUV
same,"PET/CT-derived distribution (SUV), Gallbladder","[1]; males, 2 h post-injection",2.7 ± 1.5 SUV
same,"PET/CT-derived distribution (SUV), Intestines","[1]; males, 2 h post-injection",2.9 ± 1.0 SUV
same,"PET/CT-derived distribution (SUV), Kidney","[1]; males, 2 h post-injection",7.0 ± 2.5 SUV
same,"PET/CT-derived distribution (SUV), Liver","[1]; males, 2 h post-injection",2.3 ± 1.0 SUV
same,"PET/CT-derived distribution (SUV), Lung","[1]; males, 2 h post-injection",1.0 ± 0.4 SUV
same,"PET/CT-derived distribution (SUV), Muscle","[1]; males, 2 h post-injection",0.71 ± 0.31 SUV
same,"PET/CT-derived distribution (SUV), Myocardium","[1]; males, 2 h post-injection",3.2 ± 0.9 SUV
same,"PET/CT-derived distribution (SUV), Pancreas","[1]; males, 2 h post-injection",3.4 ± 0.7 SUV
same,"PET/CT-derived distribution (SUV), Parotid","[1]; males, 2 h post-injection",11 ± 9 SUV
same,"PET/CT-derived distribution (SUV), Spleen","[1]; males, 2 h post-injection",4.1 ± 1.2 SUV
same,"PET/CT-derived distribution (SUV), Stomach","[1]; males, 2 h post-injection",33 ± 15 SUV
same,"PET/CT-derived distribution (SUV), Thyroid","[1]; males, 2 h post-injection",55 ± 31 SUV
same,"PET/CT-derived distribution (SUV), Bone","[1]; males, 3.5 h post-injection",1.4±0.5 SUV
same,"PET/CT-derived distribution (SUV), Brain","[1]; males, 3.5 h post-injection",0.74 ± 0.26 SUV
same,"PET/CT-derived distribution (SUV), Gallbladder","[1]; males, 3.5 h post-injection",4.2 ± 1.7 SUV
same,"PET/CT-derived distribution (SUV), Intestines","[1]; males, 3.5 h post-injection",4.4 ± 1.0 SUV
same,"PET/CT-derived distribution (SUV), Kidney","[1]; males, 3.5 h post-injection",11 ± 3 SUV
same,"PET/CT-derived distribution (SUV), Liver","[1]; males, 3.5 h post-injection",3.6 ± 1.2 SUV
same,"PET/CT-derived distribution (SUV), Lung","[1]; males, 3.5 h post-injection",1.7 ± 0.6 SUV
same,"PET/CT-derived distribution (SUV), Muscle","[1]; males, 3.5 h post-injection",0.96 ± 0.31 SUV
same,"PET/CT-derived distribution (SUV), Myocardium","[1]; males, 3.5 h post-injection",5.0 ± 0.9 SUV
same,"PET/CT-derived distribution (SUV), Pancreas","[1]; males, 3.5 h post-injection",6.2 ± 2.1 SUV
same,"PET/CT-derived distribution (SUV), Parotid","[1]; males, 3.5 h post-injection",16 ± 13 SUV
same,"PET/CT-derived distribution (SUV), Spleen","[1]; males, 3.5 h post-injection",6.3 ± 1.1 SUV
same,"PET/CT-derived distribution (SUV), Stomach","[1]; males, 3.5 h post-injection",70 ± 32 SUV
same,"PET/CT-derived distribution (SUV), Thyroid","[1]; males, 3.5 h post-injection",82 ± 42 SUV
same,"time of peak radioactivity concentration, LVBP",[1]; [6],~1 min
same,"time of peak radioactivity concentration, liver",[1]; [6],~2 min
same,"time of peak radioactivity concentration, lung",[1]; [6],~1 min
same,"uptake in thyroid, stomach, salivary glands and kidney",[1]; whole-body PET/CT at 2 h post-injection,Robust uptake; also recorded: high uptakes
same,clinical laboratory test values after administration,"[2]; blood chemistries, electrolytes, liver and kidney functional tests, relative to baseline",No significant changes; also recorded: no significant findings
same,adverse effects,[2]; eight healthy participants,no adverse effects
same,tolerability of administration,"[2]; healthy participants, 333-407 MBq intravenous",well-tolerated; also recorded: well tolerated
same,vital signs after administration,"[2]; heart rate, blood pressures, respiratory rate, before vs after administration",No significant changes; also recorded: no significant findings
same,uptake by hNIS-expressing tumor versus specific activity,[3]; >13 MBq/μmol compared to 3 MBq/μmol,higher at high specific activity
same,uptake in hNIS-negative tumors,[3]; [7],No uptake
same,"uptake in thyroid, stomach, bladder and hNIS-expressing tumors",[3]; [7],Robust uptake
same,stomach uptake versus specific activity,"[3]; mouse, in vivo",independent of specific activity
same,stomach uptake over 60 min,[3]; over 60 min,linear increase
same,uptake kinetic in thyroid and hNIS-expressing tumor,"[3]; rapid uptake over first 10 min, slower until 30 min",bi-phasic kinetic
same,estimated in vivo concentration of TFB,[4],~0.02 µM
same,radioactivity in the form of ^18F-TFB in urine,[5],> 97%
